From patent publication US20230339952A1, “MACROCYCLIC HETEROCYCLES AND USES THEREOF” (Kumquat Biosciences Inc., priority 2022, published 2023) come the findings set out here.

SOS1, sequence (Q07889 564-1049): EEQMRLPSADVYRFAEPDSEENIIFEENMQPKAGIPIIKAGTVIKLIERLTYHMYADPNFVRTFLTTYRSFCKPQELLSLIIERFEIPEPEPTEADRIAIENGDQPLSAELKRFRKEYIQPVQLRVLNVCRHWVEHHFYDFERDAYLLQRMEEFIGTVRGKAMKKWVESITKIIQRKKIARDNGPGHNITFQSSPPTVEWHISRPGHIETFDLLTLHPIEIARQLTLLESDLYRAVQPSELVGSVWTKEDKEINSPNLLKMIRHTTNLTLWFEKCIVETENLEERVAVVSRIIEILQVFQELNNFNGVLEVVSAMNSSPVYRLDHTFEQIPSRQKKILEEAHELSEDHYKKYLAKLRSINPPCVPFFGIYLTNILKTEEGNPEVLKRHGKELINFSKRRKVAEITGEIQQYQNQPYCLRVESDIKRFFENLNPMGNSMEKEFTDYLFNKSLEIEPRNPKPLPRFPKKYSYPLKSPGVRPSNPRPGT

The assay has as its target SOS1 (Homo sapiens (Human), UniProt Q07889). Nature of the assay: Ras-SOS interaction assay (HTRF), K-Ras G13D utilized. The class given is binding. To be noted: K-Ras G13D, read-out: SOS1 IC50. From the text: For example, the equilibrium interaction of human SOS1 (hSOS1) with human wildtype Kras or K-Ras mutant (e.g., hK-Ras G12C mutant, or hK-Ras G12C) can be assessed as a proxy or an indication for a subject compound's ability to inhibit SOS. Detection of such interaction is achieved by measuring homogenous time-resolved fluorescence resonance energy transfer (HTRF) from (i) a fluorescence resonance energy transfer (FRET) donor (e.g., antiGST-Europium) that is bound to GST-tagged K-Ras G12C to (ii) a FRET acceptor (e.g., anti-6His-XL665) bound to a His-tagged hSOS1.
A Ras working solution is prepared in assay buffer containing typically 10 nM of the protein construct (e.g., GST-tagged hK-Ras G12C) and 2 nM of the FRET donor (e.g., antiGST-Eu(K) from Cisbio, France). A SOS1 working solution is prepared in assay buffer containing typically 10 nM of the protein construct (e.g., His-hSOS1) and 10 nM of the FRET acceptor (e.g., anti-6His-XL665 from Cisbio, France). An inhibitor control solution is prepared in assay buffer containing 10 nM of the FRET acceptor without the SOS1 protein.
A fixed reaction mixture with or without test compound is transferred into a 384-well plate. Ras working solution is added to all wells of the test plate. SOS1 working solution is added to all wells except for those that are subsequently filled with the inhibitor control solution. […] The ratiometric data (i.e., emission 2 divided by emission 1) is used to calculate IC50 values against SOS1 using GraphPad Prism (GraphPad software).
Regarding `COc1cc2nc(C)nc3c2cc1OCCOCCOCCOCCOCCNC(=O)CCNCc1ccccc1C1=CC=C(S1)C(C)N3` (stereo not drawn) [Compound 136, 5^7-methoxy-5^2,3-dimethyl-6,9,12,15,18-pentaoxa-4,21,25-triaza-5(4,6)-quinazolina-2(2,5)-thiophena-1(1,2)-benzenacyclohexacosaphan-22-one], the IC50 is 100 to 5000 nM.
Turning to `COc1cc2nc(C)nc3c2cc1OCCCCOCCOCCOCCNCc1ccccc1C1=CC=C(S1)C(C)N3` (stereo not drawn) [Compound 150, 5^7-methoxy-5^2,3-dimethyl-6,11,14,17-tetraoxa-4,20-diaza-5(4,6)-quinazolina-2(2,5)-thiophena-1(1,2)-benzenacyclohenicosaphane], the IC50 was 100 to 5000 nM.
Turning to `COc1cc2nc(C)nc3c2cc1OCCOCCOCCOCCNC(=O)CCOCCNCc1ccccc1-c1cccc(c1)[C@@H](C)N3` [Compound 14, (R)-5^7-methoxy-5^2,3-dimethyl-6,9,12,15,22-pentaoxa-4,18,25-triaza-5(4,6)-quinazolina-1(1,2),2(1,3)-dibenzenacyclohexacosaphan-19-one], the IC50 fell in the range of 100 to 5000 nM.
Then `Cc1nc2c3cc(C4(C#N)CC4)c(=O)n(c3n1)CCCCCCCCCOCC(F)(F)c1cccc(c1F)[C@@H](C)N2` [Compound 133, 1-((3R)-4^2,5,5-trifluoro-1^2,3-dimethyl-1^7-oxo-1^7,1^8-dihydro-7-oxa-2-aza-1(4,8)-pyrido[2,3-d]pyrimidina-4(1,3)-benzenacyclohexadecaphane-1^6-yl)cyclopropane-1-carbonitrile], with 100 to 5000 nM; and `Cc1nc2c3cc(C4(C#N)CC4)c(=O)n(c3n1)CCC/C=C\COCC(F)(F)c1cccc(c1F)[C@@H](C)N2` [Compound 1, 1-((3R,Z)-4^2,5,5-trifluoro-1^2,3-dimethyl-1^7-oxo-1^7,1^8-dihydro-7-oxa-2-aza-1(4,8)-pyrido[2,3-d]pyrimidina-4(1,3)-benzenacyclotridecaphan-9-en-16-yl)cyclopropane-1-carbonitrile], with 100 to 5000 nM; and `CC(C)N1CCN(c2cc3c4ncnc(c4c2)N[C@H](C)c2cccc(c2)C(F)(F)C2CCN(CCCCCCO3)CC2)CC1` [Compound 195, (R)-2,2-difluoro-6^6-(4-isopropylpiperazin-1-yl)-4-methyl-7-oxa-5-aza-6(4,8)-quinazolina-1(4,1)-piperidina-3(1,3)-benzenacyclotridecaphane], with less than 100 nM.
The value for `C[C@H]1Nc2ncnc3cc(c(N4CCS(=O)(=O)CC4)cc23)OCCCCOCCCN2CCC(CC2)C(F)(F)c2cccc1c2` [Compound 192, (R)-4-(2,2-difluoro-4-methyl-7,12-dioxa-5-aza-6(4,7)-quinazolina-1(4,1)-piperidina-3(1,3)-benzenacyclopentadecaphane-6^6-yl)thiomorpholine 1,1-dioxide] was less than 100 nM; that for `C[C@H]1Nc2ncnc3c2cc(C2(C#N)CC2)c(=O)n3CC(=O)N(C)CCCCN2CCC(CC2(C)C)C(F)(F)c2cccc1c2` (stereo partly drawn) [Compound 93, 1-((4R)-2,2-difluoro-1^2,1^2,4,9-tetramethyl-6^7,8-dioxo-6^7,6^8-dihydro-5,9-diaza-6(4,8)-pyrido[2,3-d]pyrimidina-1(4,1)-piperidina-3(1,3)-benzenacyclotridecaphane-6^6-yl)cyclopropane-1-carbonitrile] was less than 100 nM; that for `C[C@H]1Nc2ncnc3c2cc(N2CCS(=O)(=O)CC2)c(=O)n3CCCOCCCCN2CCC(CC2)C(F)(F)c2cccc1c2F` [Compound 69, (4R)-6^6-(1,1-dioxidothiomorpholino)-3^2,2,2-trifluoro-4-methyl-6^7,6^8-dihydro-10-oxa-5-aza-6(4,8)-pyrido[2,3-d]pyrimidina-1(4,1)-piperidina-3(1,3)-benzenacyclotetradecaphan-6^7-one] was less than 100 nM.
Then `Cc1nc2c3cc(C4(C#N)CC4)c(=O)n(c3n1)CCCC/C=C\CC(C)(O)C(F)(F)c1cccc(c1)[C@@H](C)N2` (stereo partly drawn) [Compound 13, 1-((3R,Z)-5,5-difluoro-6-hydroxy-1^2,3,6-trimethyl-1^7-oxo-1^7,1^8-dihydro-2-aza-1(4,8)-pyrido[2,3-d]pyrimidina-4(1,3)-benzenacyclotridecaphan-8-en-1^6-yl)cyclopropane-1-carbonitrile], with 100 to 5000 nM.
With `Cc1nc2c3cc(C4(C#N)CC4)c(=O)n(c3n1)CCCCCCCCCC(C)(O)C(F)(F)c1cccc(c1)[C@@H](C)N2` (stereo partly drawn) [Compound 115, 1-((3R)-5,5-difluoro-6-hydroxy-1^2,3,6-trimethyl-1^7-oxo-1^7,1^8-dihydro-2-aza-1(4,8)-pyrido[2,3-d]pyrimidina-4(1,3)-benzenacyclopentadecaphane-1^6-yl)cyclopropane-1-carbonitrile], the IC50 lay in the range of 100 to 5000 nM.
Then `C[C@H]1Nc2ncnc3c(cc(N4CCS(=O)(=O)CC4)cc23)OCCCCCCN2CCC(CC2)C(F)(F)c2cccc1c2` [Compound 193, (R)-4-(2,2-difluoro-4-methyl-7-oxa-5-aza-6(4,8)-quinazolina-1(4,1)-piperidina-3(1,3)-benzenacyclotridecaphane-6^6-yl)thiomorpholine 1,1-dioxide], with less than 100 nM; and `C[C@H]1Nc2nc(=O)n(c3c2cc(C2(C#N)CC2)c(=O)n3C)CCCCOCC(F)(F)c2cccc1c2F` [Compound 37, 1-((3R,E)-4^2,5,5-trifluoro-1^8,3-dimethyl-1^2,1^7-dioxo-1^1,1^2,1^7,1^8-tetrahydro-7-oxa-2-aza-1(4,1)-pyrido[2,3-d]pyrimidina-4(1,3)-benzenacycloundecaphane-1^6-yl)cyclopropane-1-carbonitrile], with 100 to 5000 nM.
Consider `COc1cc2nc(C)nc3c2cc1OCCOCCOCCOCCOCCNCc1ccccc1-c1cccc(c1)C(C)N3` (stereo not drawn) [Compound 99, 5^7-methoxy-5^2,3-dimethyl-6,9,12,15,18-pentaoxa-4,21-diaza-5(4,6)-quinazolina-1(1,2),2(1,3)-dibenzenacyclodocosaphane], for which the IC50 was in the range of 100 to 5000 nM.
Then `C[C@H]1Nc2ncnc3c2cc(C2CCS(=O)(=O)CC2)c(=O)n3CCNC(=O)CCCN2CCC(CC2)C(F)(F)c2cccc1c2` [Compound 75, (4R)-6^6-(1,1-dioxidotetrahydro-2H-thiopyran-4-yl)-2,2-difluoro-4-methyl-6^7,6^8-dihydro-5,9-diaza-6(4,8)-pyrido[2,3-d]pyrimidina-1(4,1)-piperidina-3(1,3)-benzenacyclotridecaphane-6^7,10-dione], with less than 100 nM.
The value for `C[C@H]1Nc2nc(=O)n(c3c2cc(C2(C#N)CC2)c(=O)n3C)CCCCCOCC(F)(F)c2cccc1c2F` [Compound 5, 1-((3R,E)-4^2,5,5-trifluoro-1^8,3-dimethyl-1^2,1^7-dioxo-1^1,1^2,1^7,1^8-tetrahydro-7-oxa-2-aza-1(4,1)-pyrido[2,3-d]pyrimidina-4(1,3)-benzenacyclododecaphane-1^6-yl)cyclopropane-1-carbonitrile] was 100 to 5000 nM; that for `COc1cc2nc(C)nc3c2cc1OCCOCCOCCOCCOCCNC(=O)CCCCNCc1ccccc1C1=CC=C(S1)C(C)N3` (stereo not drawn) [Compound 45, 5^7-methoxy-5^2,3-dimethyl-6,9,12,15,18-pentaoxa-4,21,27-triaza-5(4,6)-quinazolina-2(2,5)-thiophena-1(1,2)-benzenacyclooctacosaphan-22-one] was less than 100 nM.
Then `C[C@H]1Nc2nc(=O)n(c3c2cc(C2(C#N)CC2)c(=O)n3C)CCC/C=C\COCC(F)(F)c2cccc1c2F` [Compound 2, 1-((1^3E,3R,9Z)-4^2,5,5-trifluoro-1^8,3-dimethyl-1^2,1^7-dioxo-1^1,1^2,1^7,1^8-tetrahydro-7-oxa-2-aza-1(4,1)-pyrido[2,3-d]pyrimidina-4(1,3)-benzenacyclotridecaphan-9-en-1^6-yl)cyclopropane-1-carbonitrile], with 100 to 5000 nM; and `C[C@H]1Nc2nc(=O)n(c3c2cc(C2(C#N)CC2)c(=O)n3C)CCCC/C=C\COCC(F)(F)c2cccc1c2F` [Compound 82, 1-((1^3E,3R,9Z)-4^2,5,5-trifluoro-1^8,3-dimethyl-1^2,1^7-dioxo-1^1,1^2,1^7,1^8-tetrahydro-7-oxa-2-aza-1(4,1)-pyrido[2,3-d]pyrimidina-4(1,3)-benzenacyclotetradecaphan-9-en-1^6-yl)cyclopropane-1-carbonitrile], with 100 to 5000 nM; and `Cc1nc2c3cc(C4(C#N)CC4)c(=O)n(c3n1)CCCCCCCC(C)(O)C(F)(F)c1cccc(c1)[C@@H](C)N2` (stereo partly drawn) [Compound 148, 1-((3R)-5,5-difluoro-6-hydroxy-1^2,3,6-trimethyl-1^7-oxo-1^7,1^8-dihydro-2-aza-1(4,8)-pyrido[2,3-d]pyrimidina-4(1,3)-benzenacyclotridecaphane-1^6-yl)cyclopropane-1-carbonitrile], with 100 to 5000 nM.
Turning to `COc1cc2nc(C)nc3c2cc1OCCOCCOCCOCCOCCNC(=O)CCCNCc1ccccc1C1=CC=C(S1)C(C)N3` (stereo not drawn) [Compound 51, 5^7-methoxy-5^2,3-dimethyl-6,9,12,15,18-pentaoxa-4,21,26-triaza-5(4,6)-quinazolina-2(2,5)-thiophena-1(1,2)-benzenacycloheptacosaphan-22-one], the IC50 was less than 100 nM.
